Target: Cytochrome P450 2E1 (Homo sapiens, UniProt P05181)
Experiment: Spectral Binding Assay
From the text: All UV/Vis spectra of the enzyme-ligand complexes were obtained on a Cary 5000 UV/Vis spectrophotometer.

Cytochrome P450 2E1, sequence (P05181 whole entry): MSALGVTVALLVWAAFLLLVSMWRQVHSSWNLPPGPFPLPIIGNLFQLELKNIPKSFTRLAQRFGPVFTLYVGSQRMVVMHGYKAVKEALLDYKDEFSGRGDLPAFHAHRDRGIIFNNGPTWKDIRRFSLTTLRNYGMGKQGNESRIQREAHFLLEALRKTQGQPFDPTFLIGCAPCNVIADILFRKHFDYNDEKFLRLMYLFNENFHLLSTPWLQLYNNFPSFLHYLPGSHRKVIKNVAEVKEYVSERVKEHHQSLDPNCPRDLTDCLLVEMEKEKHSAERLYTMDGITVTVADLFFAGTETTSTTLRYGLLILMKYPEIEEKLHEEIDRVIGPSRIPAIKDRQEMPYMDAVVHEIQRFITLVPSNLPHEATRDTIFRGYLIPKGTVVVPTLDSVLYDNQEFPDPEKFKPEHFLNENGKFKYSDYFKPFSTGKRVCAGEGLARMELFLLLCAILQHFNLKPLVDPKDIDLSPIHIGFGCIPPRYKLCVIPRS

SMILES | Kd [nM]
CCCCCCOC(=O)c1cccnc1 [Auxiliary substrate, 1a] | 1400
CCC(C)CCOC(=O)c1cccnc1 (stereo not drawn) [Auxiliary substrate, 10a] | 2600
CC(C)CCCCOC(=O)c1cccnc1 [Auxiliary substrate, 11a] | 1800
CCCCCOC(=O)c1cccnc1 [Auxiliary substrate, 12a] | 5900
CCCCCCCCOC(=O)c1cccnc1 [Auxiliary substrate, 14a] | 2100
CC/C=C/CCOC(=O)c1cccnc1 [Auxiliary substrate, 16a] | 1300
C=CCCOC(=O)c1cccnc1 [Auxiliary substrate, 18a] | 12000
O=C(OCC1CCCC1)c1cccnc1 [Auxiliary substrate, 20a] | 1600

Reference: BindingDB's records for doi:10.1002/cbic.201200524 (Mcgill University, 2012)
